Laboratory results as given in PMC8101546 (Biochimica et biophysica acta. Molecular cell research, 2018).

Assays:
U2OS cells = test: Ca2+ mobilization after microinjection into U2OS cells expressing GCaMP6M; type: cell-based, human; conditions: GCaMP6M fluorescence
NAADP receptor [1] = test: Ca2+ release assay in sea urchin egg homogenate; type: biochemical, Strongylocentrotus purpuratus; conditions: read-out: Ca2+ mobilizing EC50, fluo-3, n = 3, ± STDEV
NAADP receptor [2] = test: Self-desensitization to subsequent 1 μM NAADP in sea urchin egg homogenate; type: biochemical, Strongylocentrotus purpuratus; conditions: read-out: IC50 for desensitization to NAADP-evoked Ca2+ release, subsequent addition of 1 μM NAADP, n = 3, ± STDEV
23 kDa protein = type: binding, human; conditions: U2OS cell extracts; for IC50: read-out: IC50 for displacement of photolabeling of the 23 kDa protein, [32P]-5N3-8-ethynyl-NAADP (0.23 nM) photoprobe, densitometry
35 kDa protein = type: binding, human; conditions: U2OS cell extracts; for IC50: read-out: IC50 for displacement of photolabeling of the 35 kDa band, [32P]-5N3-8-ethynyl-NAADP (0.23 nM) photoprobe, densitometry

Structure (SMILES)	peak F/F0 (Ca2+ response) (U2OS cells; 1 μM in pipette, n = 3)	peak F/F0 (Ca2+ response) (U2OS cells; 10 μM in pipette, n = 3)	EC50 (NAADP receptor [1]) [nM]	IC50 (NAADP receptor [2]) [nM]	peak F/F0 (Ca2+ response) (U2OS cells; 100 nM in pipette, n = 3 injections)	displacement of 23 kDa photolabeling, more penetrant compared to NADP (23 kDa protein; ratio of IC50 values NADP/NAADP)	IC50 (23 kDa protein) [nM]	lower affinity of the 35 kDa band in contrast to the 23 kDa band (35 kDa protein; ratio of IC50 values 35 kDa/23 kDa)	IC50 (35 kDa protein) [nM]
C#Cc1nc2c(N)ncnc2n1C1OC(COP(=O)(O)OP(=O)(O)OC[C@H]2O[C@@H]([n+]3cc(N=[N+]=[N-])cc(C(=O)[O-])c3)[C@H](O)[C@@H]2O)C(O)C1OP(=O)(O)O (some centres unmarked) [5N3-8-ethynyl-NAADP, 5-Azido-8-ethynyl-NAADP]	2.14 ± 0.37	2.8 ± 0.33	2860 ± 400	99 ± 7.7	–	–	–	–	–
Nc1ncnc2c1ncn2[C@@H]1O[C@H](COP(=O)(O)OP(=O)(O)OCC2OC([n+]3cccc(C(=O)[O-])c3)C(O)C2O)[C@@H](O)[C@H]1OP(=O)(O)O (stereo in doubt) [NAADP, nicotinic acid adenine dinucleotide 2′-phosphate]	–	–	–	–	4.01 ± 1.2	~ 9 fold	27 ± 1.3	~ 8 fold	213 ± 19
NC(=O)c1ccc[n+]([C@@H]2O[C@H](COP(=O)([O-])OP(=O)(O)OC[C@H]3O[C@@H](n4cnc5c(N)ncnc54)[C@H](OP(=O)(O)O)[C@@H]3O)[C@@H](O)[C@H]2O)c1 [NADP, nicotinamide adenine dinucleotide 2′-phosphate]	–	–	–	–	–	–	246 ± 13	–	940 ± 204
